Assay results: patent US11566057B2, “Long-acting co-agonists of the glucagon and GLP-1 receptors” (Merck Sharp & Dohme Corp., priority 2017, dated 2023)
Where two headings read alike, the source gives them in different places. Blank lines part the entries; values can stand above or below the molecule they belong to. Numbered stars: 1 amine (or outer) side, 2 acyl side, 3 side chain; on linkers, the order of the positions; unused ones are H or OH. Square brackets hold non-standard residues; d marks the D form. Side chains are listed from the residue outwards. Peptide text beside a SMILES is read from it. * marks the point of attachment. C18 diacid = O=C(O)CCCCCCCCCCCCCCCCC(=O)*; γGlu = O=C(O)[C@H](CCC(=O)[*:2])N[*:1]; Met(O2) = CS(=O)(=O)CC[C@H](N)C(=O)O; αMeD = C[C@](N)(CC(=O)O)C(=O)O; AEEA = NCCOCCOCC(=O)O; Aib = CC(C)(N)C(=O)O

Legend:
human GCGR = molecular target: T1, human GCGR (Homo sapiens, UniProt P47871); assay: cAMP activity assay at the Glucagon receptor (GCGR); format: cell-based; details: for hGCGR/hGLP1R (hTone): ratio of GCGR EC50 to GLP1R EC50
T1 construct: expressed in transfected cells; growth medium holds Blasticidin and Hygromycin
Summary of the method: (§1)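 Peptides serially diluted from DMSO (10 points) and added to frozen-stock cells bearing human GLP1R (10,000 cells/well) or GCGR (30,000 cells/well), 1 h at RT, dark. EC50 by four-parameter logistic fit of HitHunter cAMPXS luminescence, read following overnight RT incubation.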

human GLP1R = molecular target: T2, human GLP1R (Homo sapiens, UniProt P43220); assay: cAMP activity assay at the GLP-1 receptor (GLP1R); format: cell-based
T2 construct: expressed in transfected cells; growth medium holds Blasticidin and Hygromycin
Summary of the method: as §1

[1] = cells expressing human GCGR, cAMP production, buffer with or without 20% human serum (not stated which), read-out: GCGR EC50 human
[2] = cells expressing human GLP1R, cAMP production, buffer with or without 20% human serum (not stated which), read-out: GLP1R EC50 human
[3] = summary statement: EC50 at each of the glucagon and GLP-1 receptors, read-out: EC50 at the glucagon receptor
[4] = summary statement: EC50 at each of the glucagon and GLP-1 receptors, read-out: EC50 at the GLP-1 receptor

T1 sequence (P47871 26-477): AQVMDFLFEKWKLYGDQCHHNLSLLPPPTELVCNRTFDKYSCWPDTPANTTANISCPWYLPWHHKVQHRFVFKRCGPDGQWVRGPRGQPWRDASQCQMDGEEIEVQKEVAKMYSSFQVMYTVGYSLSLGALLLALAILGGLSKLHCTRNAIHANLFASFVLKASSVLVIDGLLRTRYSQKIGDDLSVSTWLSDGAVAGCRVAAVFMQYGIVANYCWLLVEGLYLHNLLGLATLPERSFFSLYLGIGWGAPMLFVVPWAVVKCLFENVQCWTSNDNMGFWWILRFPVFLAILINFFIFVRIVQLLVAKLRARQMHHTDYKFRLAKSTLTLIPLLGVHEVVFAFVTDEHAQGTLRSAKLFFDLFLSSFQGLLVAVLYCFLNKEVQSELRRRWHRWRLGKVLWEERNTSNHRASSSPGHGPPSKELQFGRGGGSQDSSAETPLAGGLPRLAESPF
T2 sequence (P43220 24-463): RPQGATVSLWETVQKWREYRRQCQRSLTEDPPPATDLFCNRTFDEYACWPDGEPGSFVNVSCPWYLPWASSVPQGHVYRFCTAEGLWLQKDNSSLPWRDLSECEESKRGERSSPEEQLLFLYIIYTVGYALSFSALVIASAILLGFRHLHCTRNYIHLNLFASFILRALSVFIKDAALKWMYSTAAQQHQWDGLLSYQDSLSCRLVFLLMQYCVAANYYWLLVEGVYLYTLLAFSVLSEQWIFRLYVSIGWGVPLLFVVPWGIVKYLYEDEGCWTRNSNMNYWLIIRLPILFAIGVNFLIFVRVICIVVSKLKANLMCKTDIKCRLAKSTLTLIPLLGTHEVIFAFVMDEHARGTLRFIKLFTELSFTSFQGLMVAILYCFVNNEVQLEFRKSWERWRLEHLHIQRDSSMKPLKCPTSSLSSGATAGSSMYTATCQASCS

Structure (SMILES): CC(C)C[C@H](NC(=O)[C@H](CCCCN)NC(=O)[C@H](CCCCN)NC(=O)[C@H](CO)NC(=O)[C@H](Cc1ccc(O)cc1)NC(=O)[C@H](CCC(=O)O)NC(=O)[C@H](CO)NC(=O)[C@@H](NC(=O)[C@H](Cc1ccccc1)NC(=O)[C@@H](NC(=O)CNC(=O)[C@H](CCC(N)=O)NC(=O)C(C)(C)NC(=O)[C@@H](N)Cc1c[nH]cn1)[C@@H](C)O)[C@@H](C)O)C(=O)N[C@@H](CC(=O)O)C(=O)N[C@@H](C)C(=O)N[C@@H](CCCNC(=N)N)C(=O)N[C@@H](C)C(=O)N[C@@H](C)C(=O)N[C@@H](CCCCNC(=O)COCCOCCNC(=O)COCCOCCNC(=O)CC[C@H](NC(=O)CCCCCCCCCCCCCCCCC(=O)O)C(=O)O)C(=O)N[C@@H](CC(=O)O)C(=O)N[C@@H](Cc1ccccc1)C(=O)N[C@H](C(=O)N[C@@H](CCC(N)=O)C(=O)N[C@@H](Cc1c[nH]c2ccccc12)C(=O)N[C@@H](CC(C)C)C(=O)N[C@@H](CCS(C)(=O)=O)C(=O)N[C@@H](CC(=O)O)C(=O)N[C@H](C(N)=O)[C@@H](C)O)C(C)C [TP703] (H-H[Aib]QGTFTSEYSKKLDARAAK([AEEA-AEEA-γGlu-C18 diacid])DFVQWL[Met(O2)]DT-NH2)
EC50 (human GCGR; [1]): > 19.8 nM
EC50 (human GLP1R; [2]): > 19.8 nM

Structure (SMILES): CC(C)C[C@H](NC(=O)[C@H](Cc1ccc(O)cc1)NC(=O)[C@H](CCCCN)NC(=O)[C@H](CO)NC(=O)[C@H](Cc1ccc(O)cc1)NC(=O)[C@H](CC(=O)O)NC(=O)[C@H](CO)NC(=O)[C@@H](NC(=O)[C@H](Cc1ccccc1)NC(=O)[C@@H](NC(=O)CNC(=O)[C@H](CCC(N)=O)NC(=O)C(C)(C)NC(=O)[C@@H](N)Cc1c[nH]cn1)[C@@H](C)O)[C@@H](C)O)C(=O)N[C@@H](CC(=O)O)C(=O)N[C@@H](C)C(=O)N[C@@H](CCCNC(=N)N)C(=O)N[C@@H](C)C(=O)N[C@@H](C)C(=O)N[C@@H](CCCCNC(=O)COCCOCCNC(=O)COCCOCCNC(=O)CC[C@H](NC(=O)CCCCCCCCCCCCCCCCC(=O)O)C(=O)O)C(=O)N[C@@H](CC(=O)O)C(=O)N[C@@H](Cc1ccccc1)C(=O)N[C@H](C(=O)N[C@@H](CCC(N)=O)C(=O)N[C@@H](Cc1c[nH]c2ccccc12)C(=O)N[C@@H](CC(C)C)C(=O)N[C@@H](CCS(C)(=O)=O)C(=O)N[C@@H](CC(=O)O)C(=O)N[C@H](C(=O)O)[C@@H](C)O)C(C)C [TP736] (H-H[Aib]QGTFTSDYSKYLDARAAK([AEEA-AEEA-γGlu-C18 diacid])DFVQWL[Met(O2)]DT-OH)
hGCGR/hGLP1R (hTone) (human GCGR): 2.8
EC50 (human GCGR; [3]): < 5 nM
EC50 (human GLP1R; [4]): < 5 nM

Structure (SMILES): CC(C)C[C@H](NC(=O)[C@H](Cc1c[nH]c2ccccc12)NC(=O)[C@H](CCCCNC(=O)COCCOCCNC(=O)COCCOCCNC(=O)CC[C@H](NC(=O)CCCCCCCCCCCCCCCCC(=O)O)C(=O)O)NC(=O)[C@@H](NC(=O)[C@H](Cc1ccccc1)NC(=O)[C@H](CC(=O)O)NC(=O)[C@H](CCC(N)=O)NC(=O)[C@H](C)NC(=O)[C@H](C)NC(=O)[C@H](CCCNC(=N)N)NC(=O)C(C)(C)NC(=O)[C@H](CC(=O)O)NC(=O)[C@H](CC(C)C)NC(=O)[C@H](Cc1ccc(O)cc1)NC(=O)[C@H](CCCCN)NC(=O)[C@H](CO)NC(=O)[C@H](Cc1ccc(O)cc1)NC(=O)[C@H](CC(=O)O)NC(=O)[C@H](CO)NC(=O)[C@@H](NC(=O)[C@H](Cc1ccccc1)NC(=O)[C@@H](NC(=O)CNC(=O)[C@H](CCC(N)=O)NC(=O)C(C)(C)NC(=O)[C@@H](N)Cc1c[nH]cn1)[C@@H](C)O)[C@@H](C)O)C(C)C)C(=O)N[C@@H](CCS(C)(=O)=O)C(=O)N[C@@H](CC(=O)O)C(=O)N[C@H](C(=O)O)[C@@H](C)O [TP737] (H-H[Aib]QGTFTSDYSKYLD[Aib]RAAQDFVK([AEEA-AEEA-γGlu-C18 diacid])WL[Met(O2)]DT-OH; N-terminus assumed)
hGCGR/hGLP1R (hTone) (human GCGR): 0.6
EC50 (human GCGR; [3]): < 5 nM
EC50 (human GLP1R; [4]): < 5 nM

Results, then the molecule that gave them:

EC50 (human GCGR; [1]): 0.27 nM
hGCGR/hGLP1R (hTone) (human GCGR): 0.7
EC50 (human GCGR; [3]): < 5 nM
EC50 (human GLP1R; [4]): < 5 nM
Structure (SMILES): CC(C)C[C@H](NC(=O)[C@H](Cc1ccc(O)cc1)NC(=O)[C@H](CCCCN)NC(=O)[C@H](CO)NC(=O)[C@H](Cc1ccc(O)cc1)NC(=O)[C@H](CC(=O)O)NC(=O)[C@H](CO)NC(=O)[C@@H](NC(=O)[C@H](Cc1ccccc1)NC(=O)[C@@H](NC(=O)CNC(=O)[C@H](CCC(N)=O)NC(=O)C(C)(C)NC(=O)[C@@H](N)Cc1c[nH]cn1)[C@@H](C)O)[C@@H](C)O)C(=O)N[C@@H](CC(=O)O)C(=O)N[C@@H](C)C(=O)N[C@@H](CCCNC(=N)N)C(=O)N[C@@H](C)C(=O)N[C@@H](C)C(=O)N[C@@H](CCCCNC(=O)COCCOCCNC(=O)COCCOCCNC(=O)CC[C@H](NC(=O)CCCCCCCCCCCCCCCCC(=O)O)C(=O)O)C(=O)N[C@@H](CCC(=O)O)C(=O)N[C@@H](Cc1ccccc1)C(=O)N[C@H](C(=O)N[C@@H](CCC(N)=O)C(=O)N[C@@H](Cc1c[nH]c2ccccc12)C(=O)N[C@@H](CC(C)C)C(=O)N[C@@H](CCS(C)(=O)=O)C(=O)N[C@@H](CC(=O)O)C(=O)N[C@H](C(N)=O)[C@@H](C)O)C(C)C [TP704] (H-H[Aib]QGTFTSDYSKYLDARAAK([AEEA-AEEA-γGlu-C18 diacid])EFVQWL[Met(O2)]DT-NH2; N-terminus assumed)

hGCGR/hGLP1R (hTone) (human GCGR): 3.6
EC50 (human GCGR; [3]): < 5 nM
EC50 (human GLP1R; [2]): 0.41 nM
EC50 (human GLP1R; [4]): < 5 nM
Structure (SMILES): CC(C)C[C@H](NC(=O)[C@H](Cc1ccc(O)cc1)NC(=O)[C@H](CCCCN)NC(=O)[C@H](CO)NC(=O)[C@H](Cc1ccc(O)cc1)NC(=O)[C@H](CC(=O)O)NC(=O)[C@H](CO)NC(=O)[C@@H](NC(=O)[C@H](Cc1ccccc1)NC(=O)[C@@H](NC(=O)CNC(=O)[C@H](CCC(N)=O)NC(=O)C(C)(C)NC(=O)[C@@H](N)Cc1c[nH]cn1)[C@@H](C)O)[C@@H](C)O)C(=O)N[C@@H](CC(=O)O)C(=O)N[C@@H](C)C(=O)N[C@@H](CCCNC(=N)N)C(=O)N[C@@H](C)C(=O)N[C@@H](C)C(=O)N[C@@H](CCCCNC(=O)COCCOCCNC(=O)COCCOCCNC(=O)CC[C@H](NC(=O)CCCCCCCCCCCCCCCCC(=O)O)C(=O)O)C(=O)N[C@@H](CC(=O)O)C(=O)N[C@@H](Cc1ccccc1)C(=O)N[C@H](C(=O)N[C@@H](CCC(=O)O)C(=O)N[C@@H](Cc1c[nH]c2ccccc12)C(=O)N[C@@H](CC(C)C)C(=O)N[C@@H](CCS(C)(=O)=O)C(=O)N[C@@H](CCCCN)C(=O)N[C@H](C(N)=O)[C@@H](C)O)C(C)C [TP705] (H-H[Aib]QGTFTSDYSKYLDARAAK([AEEA-AEEA-γGlu-C18 diacid])DFVEWL[Met(O2)]KT-NH2; N-terminus assumed)

hGCGR/hGLP1R (hTone) (human GCGR): 2.2
EC50 (human GCGR; [3]): < 5 nM
EC50 (human GLP1R; [2]): 0.71 nM
EC50 (human GLP1R; [4]): < 5 nM
Structure (SMILES): CC(C)C[C@H](NC(=O)[C@H](Cc1ccc(O)cc1)NC(=O)[C@H](CCCCN)NC(=O)[C@H](CO)NC(=O)[C@H](Cc1ccc(O)cc1)NC(=O)[C@H](CC(=O)O)NC(=O)[C@H](CO)NC(=O)[C@@H](NC(=O)[C@H](Cc1ccccc1)NC(=O)[C@@H](NC(=O)CNC(=O)[C@H](CCC(N)=O)NC(=O)C(C)(C)NC(=O)[C@@H](N)Cc1c[nH]cn1)[C@@H](C)O)[C@@H](C)O)C(=O)N[C@@H](CC(=O)O)C(=O)N[C@@H](C)C(=O)N[C@@H](CCCNC(=N)N)C(=O)N[C@@H](C)C(=O)N[C@@H](C)C(=O)N[C@@H](CCCCNC(=O)COCCOCCNC(=O)COCCOCCNC(=O)CC[C@H](NC(=O)CCCCCCCCCCCCCCCCC(=O)O)C(=O)O)C(=O)N[C@@H](CCC(=O)O)C(=O)N[C@@H](Cc1ccccc1)C(=O)N[C@H](C(=O)N[C@@H](CCC(N)=O)C(=O)N[C@@H](Cc1c[nH]c2ccccc12)C(=O)N[C@@H](CC(C)C)C(=O)N[C@@H](CCS(C)(=O)=O)C(=O)N[C@@](C)(CC(=O)O)C(=O)N[C@H](C(N)=O)[C@@H](C)O)C(C)C [TP713] (H-H[Aib]QGTFTSDYSKYLDARAAK([AEEA-AEEA-γGlu-C18 diacid])EFVQWL[Met(O2)][αMeD]T-NH2; N-terminus assumed)

hGCGR/hGLP1R (hTone) (human GCGR): 1.4
EC50 (human GCGR; [3]): < 5 nM
EC50 (human GLP1R; [4]): < 5 nM
Structure (SMILES): CC(C)C[C@H](NC(=O)[C@H](Cc1ccc(O)cc1)NC(=O)[C@H](CCCCN)NC(=O)[C@H](CO)NC(=O)[C@H](Cc1ccc(O)cc1)NC(=O)[C@H](CC(=O)O)NC(=O)[C@H](CO)NC(=O)[C@@H](NC(=O)[C@H](Cc1ccccc1)NC(=O)[C@@H](NC(=O)CNC(=O)[C@H](CCC(N)=O)NC(=O)C(C)(C)NC(=O)[C@@H](N)Cc1c[nH]cn1)[C@@H](C)O)[C@@H](C)O)C(=O)N[C@@H](CC(=O)O)C(=O)N[C@@H](C)C(=O)N[C@@H](CCCNC(=N)N)C(=O)N[C@@H](C)C(=O)N[C@@H](C)C(=O)N[C@@H](CCCCNC(=O)COCCOCCNC(=O)COCCOCCNC(=O)CC[C@H](NC(=O)CCCCCCCCCCCCCCCCC(=O)O)C(=O)O)C(=O)N[C@@H](CC(=O)O)C(=O)N[C@@H](Cc1ccccc1)C(=O)N[C@H](C(=O)N[C@@H](CCC(N)=O)C(=O)N[C@@H](Cc1c[nH]c2ccccc12)C(=O)N[C@@H](CC(C)C)C(=O)N[C@@H](CCS(C)(=O)=O)C(=O)N[C@@](C)(CC(=O)O)C(=O)N[C@H](C(=O)O)[C@@H](C)O)C(C)C [TP735] (H-H[Aib]QGTFTSDYSKYLDARAAK([AEEA-AEEA-γGlu-C18 diacid])DFVQWL[Met(O2)][αMeD]T-OH; N-terminus assumed)
